Results from patent US8232293B2, “Crystalline forms of a potent HCV inhibitor” (Boehringer Ingelheim International GmbH, priority 2008, dated 2012).
≈ marks a conversion by molar mass, not a printed value. Structures can show the parent of a compound that is named as a salt. Where two headings read alike, the source gives them in different places.

Tests used:
[1] = Solubility in non-aqueous excipients (excess solid, HPLC of filtrate); format: physicochemical; conditions: room temperature, rotated up to 4 days; for solubility: thermodynamic from solid; for Solubility in Ethanol: excipient Ethanol; for Solubility in Transcutol P: excipient Transcutol P
Description: (§1) The solubility of Compound (1), as either Type A or the sodium salt form, was investigated in various non-aqueous solvents. The solutions were prepared by addition of excess Compound (1) to 0.25 ml to 1.0 ml of excipient in amber screw cap vials with Teflon lined caps. The samples were allowed to rotate at room temperature for up to 4 days. Sampling was done by centrifuging (14,000 rpm on the Eppendorf model 5415C table top centrifuge) and filtering through a 0.45 μm PVDF filter. The filtrate was subject to HPLC analysis for determining the solubility. HPLC analysis was conducted with an Agilent 1100 using gradient or isocratic conditions. Both methods used acetonitrile/water (each with 0.1% Trifluroacetic Acid) and an ACE C-18 stationary phase with column heating maintained at 40-45° C. The wavelength of detection was set at 220 nm or 264 nm. Wet solids were collected and analyzed for form change (stability) by XRPD.

[2] = Form change (stability) study of slurried solids by XRPD; format: physicochemical; conditions: slurried in either propylene glycol or ethanol, FIG. 5
Description: as §1
XRPD analyses for the form change studies were conducted on a Bruker AXS X-Ray Powder Diffractometer Model D8 Discover or D8 Advance, available from Bruker AXS, Inc. of Madison, Wis., using CuKα radiation. The tube power was set to either 40 kV and 40 mA or 40 kV and 30 mA. […]

[3] = test system: HCV infection; test: Human clinical trials in HCV-infected patients; format: in vivo
[4] = biological target: HCV NS3 serine protease (Hepatitis C virus genotype 1a, UniProt P27958); conditions: cited from earlier work
HCV NS3 serine protease, sequence (P27958 1658-1711): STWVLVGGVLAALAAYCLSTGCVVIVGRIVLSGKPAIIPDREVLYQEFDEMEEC
HCV NS3 serine protease, sequence (P27958 1027-1657): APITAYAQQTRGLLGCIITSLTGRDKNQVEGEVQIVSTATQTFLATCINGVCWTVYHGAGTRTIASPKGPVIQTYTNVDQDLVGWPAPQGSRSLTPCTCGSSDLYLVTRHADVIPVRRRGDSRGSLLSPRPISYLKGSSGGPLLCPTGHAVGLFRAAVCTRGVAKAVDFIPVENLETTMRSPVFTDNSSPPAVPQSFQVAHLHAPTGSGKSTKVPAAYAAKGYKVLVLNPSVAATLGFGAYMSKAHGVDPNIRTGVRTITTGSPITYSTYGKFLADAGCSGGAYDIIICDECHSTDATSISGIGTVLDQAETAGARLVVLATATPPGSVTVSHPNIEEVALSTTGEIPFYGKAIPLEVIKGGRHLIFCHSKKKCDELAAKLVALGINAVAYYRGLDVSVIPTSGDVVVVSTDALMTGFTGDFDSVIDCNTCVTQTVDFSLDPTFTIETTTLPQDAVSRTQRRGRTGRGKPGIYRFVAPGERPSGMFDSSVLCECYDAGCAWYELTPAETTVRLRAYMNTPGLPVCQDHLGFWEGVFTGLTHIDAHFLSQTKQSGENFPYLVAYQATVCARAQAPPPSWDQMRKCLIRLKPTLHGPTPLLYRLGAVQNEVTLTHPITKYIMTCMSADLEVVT

Row | SMILES | solubility ([1]; Capmul MCM (non-aqueous excipient), oil or lipid, excipient Capmul MCM, read-out: Solubility in Capmul MCM) [mg/mL] | solubility ([1]; Capmul PG8 (non-aqueous excipient), oil or lipid, excipient Capmul PG8, read-out: Solubility in Capmul PG8) [mg/mL] | solubility ([1]; Labrasol (non-aqueous excipient), oil or lipid, excipient Labrasol, read-out: Solubility in Labrasol) [mg/mL] | solubility ([1]; PEG 400 (non-aqueous excipient), organic solvent or mixture, excipient PEG 400, read-out: Solubility in PEG 400) [mg/mL] | solubility ([1]; Propylene Glycol (non-aqueous excipient), organic solvent or mixture, excipient Propylene Glycol, read-out: Solubility in Propylene Glycol) [mg/mL] | Solubility in Ethanol [1] [mg/mL] | Solubility in Transcutol P [1] [mg/mL] | Form stability (change in XRPD pattern of remaining solid) ([2]; listed as crystalline sodium salt form of Compound (1)) | Effectiveness in treating HCV-infected patients [3] | Inhibitory activity against HCV NS3 serine protease [4] | Solubility in Capmul MCM ([1]; excipient Capmul MCM) [mg/mL] | Solubility in Capmul PG8 ([1]; excipient Capmul PG8) [mg/mL] | Solubility in Labrasol ([1]; excipient Labrasol) [mg/mL] | Solubility in PEG 400 ([1]; excipient PEG 400) [mg/mL] | Form stability (change in XRPD pattern of remaining solid) ([2]; listed as Type A form of Compound (1))
1 | C=C[C@@H]1C[C@]1(NC(=O)[C@@H]1C[C@@H](Oc2cc(-c3csc(NC(=O)C(C)C)n3)nc3c(Br)c(OC)ccc23)CN1C(=O)[C@@H](NC(=O)OC1CCCC1)C(C)(C)C)C(=O)O [Compound (1) Na salt] | 262.5 ± 2.6 | < 169 | 175 ± 11.8 | 234 ± 34 | > 468 | 187.0 ± 23.9 | 430.6 ± 14.7 | no change in the XRPD pattern | demonstrated effectiveness |  |  |  |  |  | 
2 | C=C[C@@H]1C[C@]1(NC(=O)[C@@H]1C[C@@H](Oc2cc(-c3csc(NC(=O)C(C)C)n3)nc3c(Br)c(OC)ccc23)CN1C(=O)[C@@H](NC(=O)OC1CCCC1)C(C)(C)C)C(=O)O [Compound (1)] |  |  |  |  |  |  |  |  |  | selective and potent inhibitor |  |  |  |  | 
3 | C=C[C@@H]1C[C@]1(NC(=O)[C@@H]1C[C@@H](Oc2cc(-c3csc(NC(=O)C(C)C)n3)nc3c(Br)c(OC)ccc23)CN1C(=O)[C@@H](NC(=O)OC1CCCC1)C(C)(C)C)C(=O)O [Type A of Compound (1)] |  |  |  |  |  | 0.9 ± 0.1 (≈ 1.03 mM) | 24.3 ± 0.3 (≈ 27.9 mM) |  |  |  | 220.6 ± 7.4 (≈ 254 mM) | 172.6 ± 8.3 (≈ 198 mM) | 146.7 ± 5.1 (≈ 169 mM) | 136.8 ± 3.2 (≈ 157 mM) | clear form change
